Results: patent US20100190719A1, “PEPTIDES AS ANTIMICROBIAL AGENTS TOWARDS CAMPYLOBACTER SPP” (priority 2007, published 2010)

How the values were obtained:
C. jejuni strain C338 [1] = test: microdilution susceptibility test, inhibition of growth of C. jejuni in vitro; type: cell-based, Campylobacter jejuni; settings: for % inhibition of growth: C. jejuni strain C338, phage-displayed peptide
Experimental: Representative affinity-selected phage peptides were tested for their ability to inhibit the growth of C. jejuni strains in vitro. Each phage clone was amplified by E. coli infection and twice purified by PEG precipitation and resuspended in TBS buffer (pH 7.5). Phage concentrations were calculated as […] using the ultraviolet (UV) absorbance measurements on a spectrophotometer (Smith & Scott, 1993). […] In brief: each of the C. jejuni strains was resuspended to an OD595 of 0.2 in Nutrient Broth and then diluted to 10^4-10^5 CFU/mL in Nutrient Broth containing Campylobacter growth supplement. […] A microaerophilic environment was provided by GasPak E2 Campy Pouches (BD Biosciences). After 24-48 h at 37° C. without shaking, the optical densities of the bacterial cultures were measured at OD595 nm in a plate reader (Victor2, Perkin Elmer).
(§1) The number of viable bacteria in the 96 well plates was determined by performing colony counts on the diluted inoculum and plating onto blood agar plates. Colony counts on blood agar plates were also used to determine the initial inoculum of bacteria used in the assay. A Gram Stain Kit was used to check the morphology of C. jejuni after incubation with the phage peptides.

C. jejuni strain C338 [2] = test: morphology of C. jejuni after incubation with phage peptides (Gram stain); type: cell-based, Campylobacter jejuni; settings: normal morphology is spiral-shaped
Experimental: The morphology has changed to thread-shaped. • B. Strain C338 incubated with unselected phage library showing the normal spiral-shaped morphology • C.
as §1

Sequence	% inhibition of growth (C. jejuni strain C338 [1])	morphology of C. jejuni after incubation with phage-displayed peptide (C. jejuni strain C338 [2])	other results
FLIDSPLASIGPTSM (f88-4/15-mer peptide phage-display library) [CP3/3]	99.3%	–	–
GRFLIRVTSSPLGPD (f88-4/15-mer peptide phage-display library) [CP3/1]	96.7%	thread-shaped	inhibition of growth of C. jejuni (C. jejuni strain C338 [1]; initial bacterial inoculum 2.8×10^4 CFU/mL): 97%; inhibition of growth of C. jejuni (C. jejuni strain C338 [1]; initial bacterial inoculum 2.8×10^4 CFU/mL as printed (second value for CP3/1)): 89%
TCNLSDYTLPRARVL (f88-4/15-mer peptide phage-display library) [BT3/4]	60%	–	inhibition of growth of C. jejuni in vitro (in words) (C. jejuni strain C338 [1]; bacterial concentration of 1×10^4 CFU/mL): inhibited the growth
TGSGLYLHQMVYLYQ (f88-4/15-mer peptide phage-display library) [CP3/2]	92%	–	inhibition of growth of C. jejuni (C. jejuni strain C338 [1]; bacterial inoculum 1.6×10^5 CFU/mL): 87%
VPESIHKASLVCYRF (f88-4/15-mer peptide phage-display library) [BP3/5]	–	coccoid shaped	–
